# Measured values from patent US20050282911A1, “Memantine for the prevention or reduction of suicidality and for treatment of major depression associated with suicidality” (priority 2003, published 2005).
# Entries after “also recorded” stand apart in the source; their conditions may differ.
# What was measured:
# [1] = system: patients with major depressive disorder (MDD); assay: Open-label 12-week study of memantine in MDD (MEM-MD-09): safety and adverse events; type: in vivo, human
# Method: Study Design. The study was designed as a single-center, open-label, flexible dose 12-week study. Memantine was to be administered at 20 mg/day (10 mg b.i.d.) (titrated over a 4 week period), and, if warranted, up-titrated to a maximum of 40 mg/day (20 mg b.i.d.) (titrated in increments of 10 mg/day after Week 4).
# Drug Treatment. All eight patients were initially given 5 mg/day and titrated over a 3-week period to a minimum dose of 20 mg/day. Patients with an unsatisfactory therapeutic response (CGI-I score greater than 2) could increase to a maximum of 40 mg/day (2 patients, 30 mg/day and 40 mg/day, respectively). One patient was titrated to 30 mg/day after Week 8, and […] after Week 10. The mean treatment duration was 82 days (range: 57-86 days) and the mean daily dose was 18.1 mg/day.
# Safety. Safety was assessed throughout the course of the study by monitoring vital signs and spontaneously reported adverse events.
# [2] = cited from earlier work
# [3] = system: patients with depression of Alzheimer's disease; assay: Study MEM-MD-17: memantine in depression of Alzheimer's disease, suicide items of CSDD, MADRS, HAMD; type: in vivo, human; parameters: key to Change from Baseline in CSDD item #16 (suicide item): change in item score; 0=absent, 1=mild to intermittent, 2=severe; Change from Baseline in MADRS item #10 (suicide item) / Change from Baseline in HAMD item #3 (suicide item): scale not given here
# Method: The objective of this study (MEM-MD-17) was to evaluate the safety and efficacy of memantine and memantine in combination with escitalopram in patients with depression of Alzheimer's disease.
# The clinical study was conducted in two phases —12-weeks of open-label treatment with memantine (MEM) followed by 12-weeks of randomized double-blind treatment with memantine+placebo (MEM+PBO) or memantine+escitalopram (MEM+SCT).
# Study design. Patients were started on memantine 5 mg/day which was increased to 10 mg/day at end of Week 1. The dose could be further increased to a maximum of 20 mg/day in patients with inadequate response in weekly increments of 5 mg. At end of Week 12, patients were randomized to one of the two treatment groups: MEM+PBO or MEM+SCT. The dose of memantine during the double-blind treatment period was fixed at the same level as at the end of Week 12 and the dose of escitalopram was fixed at 10 mg. Dose adjustments during the double-blind period were not permitted.
# Patient Population. A total of 15 patients were enrolled in 2 sites. Three of the 15 patients discontinued during the open-label phase. The remaining 12 were randomized to double-blind treatment, 5 in the MEM+PBO treatment group, and 7 in the MEM+SCT treatment group. A total of 10 patients completed the study.
# Endpoints. Several rating scales were used to assess efficacy for depression. The Cornell Scale for Depression in Dementia (CSDD); the HAMD; and the MADRS. The HAMD and MADRS have been described above.
# CSDD. This is a […] scale which is subdivided into five sections: (A) Mood-Related Signs (questions 1-4); (B) Behavioral Disturbances (questions 5-8); (C) Physical Signs (questions 9-11); (D) Cyclic Functions (questions 12-15); and (E) Ideational Disturbances (questions 16-19). Question 16 is explicitly directed to suicidal ideation. The scoring system ranges from a=unable to evaluate; 0=absent; 1=mild to intermittent; and 2=severe.
# Statistics. The efficacy analyses were based on the ITT population using both last observation carried forward (LOCF) and observed cases (OC) approaches. For each of the parameters, descriptive statistics were presented for the actual values and change from baseline by visit. For categorical variables, frequency distributions were presented.
compound,measurement,setting,value
"CC12CC3CC(C)(C1)CC(N)(C3)C2.Cl [Memantine, 1-amino-3,5-dimethyladamantane hydrochloride]","clinical laboratory parameters, vital signs or ECG values","[1]; 20-40 mg/day, 12 weeks",no safety findings of concern
same,"deaths, serious adverse events, discontinuations due to adverse events","[1]; 20-40 mg/day, 12 weeks","No deaths, serious adverse events or discontinuations due to adverse events"
same,safety and tolerability,"[1]; 20-40 mg/day, 12 weeks",safe and well tolerated
same,Number of Patients Reporting TEAE: Amnesia,"[1]; Safety Population, N = 8",2 patients
same,Number of Patients Reporting TEAE: Anxiety,"[1]; Safety Population, N = 8",2 patients
same,Number of Patients Reporting TEAE: Dizziness,"[1]; Safety Population, N = 8",2 patients
same,Number of Patients Reporting TEAE: Headache,"[1]; Safety Population, N = 8",2 patients
same,Number of Patients Reporting TEAE: Influenza-like Symptoms,"[1]; Safety Population, N = 8",2 patients
same,Number of Patients Reporting TEAE: Insomnia,"[1]; Safety Population, N = 8",2 patients
same,Number of Patients Reporting TEAE: Patients with at least one TEAE,"[1]; Safety Population, N = 8",8 patients
same,Number of Patients Reporting TEAE: Somnolence,"[1]; Safety Population, N = 8",3 patients
same,solubility in aqueous media,[2],highly soluble
same,Change from Baseline in CSDD item #16 (suicide item),"[3]; Week 12, ITT Population, N = 5 who received memantine throughout, baseline 0.4",−0.4
same,Change from Baseline in HAMD item #3 (suicide item),"[3]; Week 12, ITT Population, N = 5 who received memantine throughout, baseline 0.8",−0.8
same,Change from Baseline in MADRS item #10 (suicide item),"[3]; Week 12, ITT Population, N = 5 who received memantine throughout, baseline 1.0",−1.0
same,Change from Baseline in CSDD item #16 (suicide item),"[3]; Week 12, LOCF, ITT Population, N = 15, baseline 0.4",−0.3
same,Change from Baseline in HAMD item #3 (suicide item),"[3]; Week 12, LOCF, ITT Population, N = 15, baseline 0.5",−0.5
same,Change from Baseline in MADRS item #10 (suicide item),"[3]; Week 12, LOCF, ITT Population, N = 15, baseline 0.9",−0.6
same,Change from Baseline in CSDD item #16 (suicide item),"[3]; Week 24, ITT Population, N = 5 who received memantine throughout, baseline 0.4",−0.3
same,Change from Baseline in HAMD item #3 (suicide item),"[3]; Week 24, ITT Population, N = 5 who received memantine throughout, baseline 0.8",−0.5
same,Change from Baseline in MADRS item #10 (suicide item),"[3]; Week 24, ITT Population, N = 5 who received memantine throughout, baseline 1.0",−0.5
same,suicidality as measured by 3 different depression rating instruments,"[3]; change from Baseline at Weeks 12 and 24, hydrochloride",modest but consistent numerical improvement in suicidality; also recorded: trend towards reduced suicidal thoughts and ideation
